# Assay results published in PMC13181761, “New Analogs of the Compstatin Family of Clinical Complement Inhibitors with Low Picomolar Target Affinity” (Journal of Medicinal Chemistry, 2026).
# Where two headings read alike, the source gives them in different places. Where a SMILES comes first, the peptide text is derived from it. Bridges are numbered along the chain shown (N, C = ends). [ ]: non-standard residue; d: D form. Asu = N[C@@H](CCCCCC(=O)O)C(=O)O; Orn = NCCC[C@H](N)C(=O)O
# Molecular target: T1, human C3b (Homo sapiens, UniProt P01024)
# T1 construct: purchased Complement Technology, Tyler, TX, USA
# T1 sequence (P01024 23-667 limits assumed): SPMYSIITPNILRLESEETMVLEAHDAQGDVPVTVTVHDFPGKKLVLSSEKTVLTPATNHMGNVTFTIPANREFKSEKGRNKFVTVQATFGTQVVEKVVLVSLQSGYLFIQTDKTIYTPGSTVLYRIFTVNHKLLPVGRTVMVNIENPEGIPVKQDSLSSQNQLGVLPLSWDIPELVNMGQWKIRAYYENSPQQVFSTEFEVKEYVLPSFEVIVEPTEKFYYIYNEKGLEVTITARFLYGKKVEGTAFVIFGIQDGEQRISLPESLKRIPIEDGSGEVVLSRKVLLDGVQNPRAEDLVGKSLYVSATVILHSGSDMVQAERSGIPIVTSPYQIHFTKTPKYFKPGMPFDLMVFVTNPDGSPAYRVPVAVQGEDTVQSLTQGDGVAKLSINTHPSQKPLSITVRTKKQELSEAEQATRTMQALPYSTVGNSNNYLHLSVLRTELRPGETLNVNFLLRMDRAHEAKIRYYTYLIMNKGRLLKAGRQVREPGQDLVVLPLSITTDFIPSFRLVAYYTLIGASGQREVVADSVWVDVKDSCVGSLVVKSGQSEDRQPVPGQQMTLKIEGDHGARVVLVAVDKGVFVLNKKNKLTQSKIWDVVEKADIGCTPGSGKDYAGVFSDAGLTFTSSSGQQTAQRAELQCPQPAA
# T1 sequence (P01024 749-1663 partner limits assumed): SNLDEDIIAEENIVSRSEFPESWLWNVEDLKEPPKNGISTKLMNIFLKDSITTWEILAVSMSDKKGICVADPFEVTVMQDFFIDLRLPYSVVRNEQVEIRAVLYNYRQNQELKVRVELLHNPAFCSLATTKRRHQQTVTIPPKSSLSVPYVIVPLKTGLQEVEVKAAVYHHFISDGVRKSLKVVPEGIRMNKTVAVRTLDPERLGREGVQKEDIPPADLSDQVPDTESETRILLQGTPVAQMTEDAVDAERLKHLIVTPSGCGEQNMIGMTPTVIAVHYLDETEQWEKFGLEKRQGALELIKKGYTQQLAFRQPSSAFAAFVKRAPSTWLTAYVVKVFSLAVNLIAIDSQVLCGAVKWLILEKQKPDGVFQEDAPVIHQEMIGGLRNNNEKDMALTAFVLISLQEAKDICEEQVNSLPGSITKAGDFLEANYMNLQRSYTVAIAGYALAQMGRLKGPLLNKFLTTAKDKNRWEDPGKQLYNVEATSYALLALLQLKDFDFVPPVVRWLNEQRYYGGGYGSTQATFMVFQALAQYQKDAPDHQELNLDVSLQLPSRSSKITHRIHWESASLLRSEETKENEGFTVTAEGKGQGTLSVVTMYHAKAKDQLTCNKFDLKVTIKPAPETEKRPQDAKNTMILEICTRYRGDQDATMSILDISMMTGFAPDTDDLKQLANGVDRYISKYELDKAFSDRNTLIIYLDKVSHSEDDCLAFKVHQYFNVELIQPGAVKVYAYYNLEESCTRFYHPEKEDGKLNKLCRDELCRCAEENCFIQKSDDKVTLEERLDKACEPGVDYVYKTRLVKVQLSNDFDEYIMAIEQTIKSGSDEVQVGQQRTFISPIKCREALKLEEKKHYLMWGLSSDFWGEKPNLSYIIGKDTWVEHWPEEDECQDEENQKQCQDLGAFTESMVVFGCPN
# Assay: SPR kinetic binding to immobilized human C3b
# Details: for fold affinity drop / weaker affinity compared with Cp01: K D ratio vs Cp01
# Experimental: Experiments were conducted at 25 °C in HBST buffer (10 mM HEPES, 150 mM NaCl, and 0.05% Tween-20, pH 7.4; XanTec bioanalytics). Human C3b (Complement Technology, Tyler, TX, USA) was immobilized via amine-reactive coupling. […] Individual peptide samples were injected for 120 s, followed by a 180 s dissociation phase. […] Signals from the reference cell and buffer blank injections were subtracted within each dilution series to correct for buffer effects and injection artifacts. Data were fitted to a Langmuir 1:1 binding model to calculate association (k a) and dissociation (k d) rate constants, and the equilibration constant K D is calculated based on the equation: K D = k d/k a. In the case of Cp40 derivatives and Cp60, a single-cycle approach was used for kinetic analysis by injecting 5 increasing concentrations of each compound (0.5-40 nM) consecutively without a regeneration period in between injections. Individual injections within a cycle were 120 s long with a 5 min dissociation phase between injections. […] Analog Cp40 was included in each experimental series as a reference and internal control. Signals from the reference cell and buffer blank injections were subtracted to correct for buffer effects and injection artifacts. Kinetic data were processed in BiaEvaluation (Cytiva) using single-cycle evaluation by global fitting each data set to a Langmuir 1:1 binding model. The reported kinetic parameters (Tables and ) indicate the mean values and standard deviations of three independent experiments. SPR sensorgrams are provided in the Supporting Information.
# [1] = SPR screening at 2 and 1 μM, series up to 16 μM, read-out: affinity hC3b (class symbol N.B./W.B.)
# [2] = SPR, 1:1 Langmuir fit, average of 3 independent experiments, SD in brackets
# [3] = SPR, 1:1 Langmuir fit, average of 3 independent experiments, SD in brackets, read-out: K D, affinity hC3b
Compound,Kd [1],fold affinity drop / weaker affinity compared with Cp01,"k a, affinity hC3b [2]","k d, affinity hC3b [2]",Kd [3],binding to C3b (result in words) (SPR)
CC[C@H](C)[C@H](NC(C)=O)C(=O)N[C@H]1CSSC[C@@H](C(=O)N[C@H](C(N)=O)[C@@H](C)O)NC(=O)[C@H](CCCNC(=N)N)NC(=O)[C@H](Cc2c[nH]cn2)NC(=O)[C@H](C)NC(=O)CNC(=O)[C@H](Cc2c[nH]c3ccccc23)NC(=O)[C@H](CC(=O)O)NC(=O)[C@H](CCC(N)=O)NC(=O)[C@H](Cc2c[nH]c3ccccc23)NC(=O)[C@H](Cc2ccc(O)cc2)NC1=O [Cp01 Val3Tyr] (Ac-ICYWQDWGAHRCT-NH2; disulfide 2-12),> 2000 nM,–,–,–,–,–
CC[C@H](C)[C@H](NC(C)=O)C(=O)N[C@H]1CSSC[C@@H](C(=O)N[C@H](C(N)=O)[C@@H](C)O)NC(=O)[C@H](CCCCN)NC(=O)[C@H](Cc2c[nH]cn2)NC(=O)[C@H](C)NC(=O)CNC(=O)[C@H](Cc2c[nH]c3ccccc23)NC(=O)[C@H](CC(=O)O)NC(=O)[C@H](CCC(N)=O)NC(=O)[C@H](Cc2c[nH]c3ccccc23)NC(=O)[C@H](C(C)C)NC1=O [Cp01-Arg11Lys] (Ac-ICVWQDWGAHKCT-NH2; disulfide 2-12),–,~2 fold,3.0(0.8) 10^5 M^–1 s^–1,15(2) 10^–2 s^–1,502 nM,–
CC[C@H](C)[C@H](NC(C)=O)C(=O)N[C@H]1CSSC[C@@H](C(=O)N[C@H](C(N)=O)[C@@H](C)O)NC(=O)[C@H](CO)NC(=O)[C@H](Cc2c[nH]cn2)NC(=O)[C@H](C)NC(=O)CNC(=O)[C@H](Cc2c[nH]c3ccccc23)NC(=O)[C@H](CC(=O)O)NC(=O)[C@H](CCC(N)=O)NC(=O)[C@H](Cc2c[nH]c3ccccc23)NC(=O)[C@H](C(C)C)NC1=O [Cp01-Arg11Ser] (Ac-ICVWQDWGAHSCT-NH2; disulfide 2-12),–,~2 fold,3.3(1.2) 10^5 M^–1 s^–1,16(3) 10^–2 s^–1,529 nM,–
CC[C@H](C)[C@H](NC(C)=O)C(=O)N[C@H]1CSSC[C@@H](C(=O)N[C@H](C(N)=O)[C@@H](C)O)NC(=O)[C@H](CCCNC(=N)N)NC(=O)[C@H](Cc2c[nH]cn2)NC(=O)[C@H](C)NC(=O)CNC(=O)[C@H](Cc2c[nH]c3ccccc23)NC(=O)[C@H](CC(N)=O)NC(=O)[C@H](CCC(N)=O)NC(=O)[C@H](Cc2c[nH]c3ccccc23)NC(=O)[C@H](C(C)C)NC1=O [Cp01-Asp6Asn] (Ac-ICVWQNWGAHRCT-NH2; disulfide 2-12),–,–,5.4(1.5) 10^5 M^–1 s^–1,11(1) 10^–2 s^–1,219 nM,–
CC[C@H](C)[C@H](NC(C)=O)C(=O)N[C@H]1CSSC[C@@H](C(=O)N[C@H](C(N)=O)[C@@H](C)O)NC(=O)[C@H](CCCNC(=N)N)NC(=O)[C@H](Cc2c[nH]cn2)NC(=O)[C@H](C)NC(=O)CNC(=O)[C@H](Cc2c[nH]c3ccccc23)NC(=O)[C@H](CCCCCC(=O)O)NC(=O)[C@H](CCC(N)=O)NC(=O)[C@H](Cc2c[nH]c3ccccc23)NC(=O)[C@H](C(C)C)NC1=O [Cp01-Asp6Asu] (Ac-ICVWQ[Asu]WGAHRCT-NH2; disulfide 2-12),–,10 fold,1.2(0.5) 10^5 M^–1 s^–1,23(4) 10^–2 s^–1,–,–
CC[C@H](C)[C@H](NC(C)=O)C(=O)N[C@H]1CSSC[C@@H](C(=O)N[C@H](C(N)=O)[C@@H](C)O)NC(=O)[C@H](CCCNC(=N)N)NC(=O)[C@H](Cc2c[nH]cn2)NC(=O)[C@H](C)NC(=O)CNC(=O)[C@H](Cc2c[nH]c3ccccc23)NC(=O)[C@H](CCC(=O)O)NC(=O)[C@H](CCC(N)=O)NC(=O)[C@H](Cc2c[nH]c3ccccc23)NC(=O)[C@H](C(C)C)NC1=O [Cp01-Asp6Glu] (Ac-ICVWQEWGAHRCT-NH2; disulfide 2-12),–,2 fold,3.8(1.6) 10^5 M^–1 s^–1,18(2) 10^–2 s^–1,528 nM,–
CC[C@H](C)[C@H](NC(C)=O)C(=O)N[C@H]1CSSC[C@@H](C(=O)N[C@H](C(N)=O)[C@@H](C)O)NC(=O)[C@H](CCCNC(=N)N)NC(=O)[C@H](Cc2c[nH]cn2)NC(=O)[C@H](C)NC(=O)CNC(=O)[C@H](Cc2c[nH]c3ccccc23)NC(=O)[C@H](CO)NC(=O)[C@H](CCC(N)=O)NC(=O)[C@H](Cc2c[nH]c3ccccc23)NC(=O)[C@H](C(C)C)NC1=O [Cp01-Asp6Ser] (Ac-ICVWQSWGAHRCT-NH2; disulfide 2-12),–,–,3.1(0.9) 10^5 M^–1 s^–1,18(3) 10^–2 s^–1,609 nM,–
CC[C@H](C)[C@H](NC(C)=O)C(=O)N[C@H]1CSSC[C@@H](C(=O)N[C@H](C(N)=O)[C@@H](C)O)NC(=O)[C@H](CCCNC(=N)N)NC(=O)[C@H](Cc2c[nH]cn2)NC(=O)[C@H](C)NC(=O)CNC(=O)[C@H](Cc2c[nH]c3ccccc23)NC(=O)[C@H](CC(=O)O)NC(=O)[C@H](CCCCN)NC(=O)[C@H](Cc2c[nH]c3ccccc23)NC(=O)[C@H](C(C)C)NC1=O [Cp01-Gln5Lys] (Ac-ICVWKDWGAHRCT-NH2; disulfide 2-12),> 2000 nM,–,–,–,–,no detectable target binding
CC[C@H](C)[C@H](NC(C)=O)C(=O)N[C@H]1CSSC[C@@H](C(=O)N[C@H](C(N)=O)[C@@H](C)O)NC(=O)[C@H](CCCNC(=N)N)NC(=O)[C@H](Cc2c[nH]cn2)NC(=O)[C@H](C)NC(=O)CNC(=O)[C@H](Cc2c[nH]c3ccccc23)NC(=O)[C@H](CC(=O)O)NC(=O)[C@H](CCCN)NC(=O)[C@H](Cc2c[nH]c3ccccc23)NC(=O)[C@H](C(C)C)NC1=O [Cp01-Gln5Orn] (Ac-ICVW[Orn]DWGAHRCT-NH2; disulfide 2-12),> 2000 nM,–,–,–,–,no detectable target binding
CC[C@H](C)[C@H](NC(C)=O)C(=O)N[C@H]1CSSC[C@@H](C(=O)N[C@H](C(N)=O)[C@@H](C)O)NC(=O)[C@H](CCCNC(=N)N)NC(=O)[C@H](Cc2c[nH]cn2)NC(=O)[C@H](C)NC(=O)[C@H](C)NC(=O)[C@H](Cc2c[nH]c3ccccc23)NC(=O)[C@H](CC(=O)O)NC(=O)[C@H](CCC(N)=O)NC(=O)[C@H](Cc2c[nH]c3ccccc23)NC(=O)[C@H](C(C)C)NC1=O [Cp01-Gly8Ala] (Ac-ICVWQDWAAHRCT-NH2; disulfide 2-12),> 2000 nM,–,–,–,–,diminished target binding
CC[C@H](C)[C@H](NC(C)=O)C(=O)N[C@H]1CSSC[C@@H](C(=O)N[C@H](C(N)=O)[C@@H](C)O)NC(=O)[C@H](CCCNC(=N)N)NC(=O)[C@H](Cc2c[nH]cn2)NC(=O)[C@H](C)NC(=O)[C@@H](C)NC(=O)[C@H](Cc2c[nH]c3ccccc23)NC(=O)[C@H](CC(=O)O)NC(=O)[C@H](CCC(N)=O)NC(=O)[C@H](Cc2c[nH]c3ccccc23)NC(=O)[C@H](C(C)C)NC1=O [Cp01-Gly8dAla] (Ac-ICVWQDW[dA]AHRCT-NH2; disulfide 2-12),> 16000 nM,–,–,–,–,diminished target binding
